This experiment deals with T1, rhCRTh2 (Homo sapiens, UniProt Q9Y5Y4).
T1 construct: expressed in transfected cells; host or cells: HEK cells (membrane preparation)
T1 sequence (Q9Y5Y4 1-395): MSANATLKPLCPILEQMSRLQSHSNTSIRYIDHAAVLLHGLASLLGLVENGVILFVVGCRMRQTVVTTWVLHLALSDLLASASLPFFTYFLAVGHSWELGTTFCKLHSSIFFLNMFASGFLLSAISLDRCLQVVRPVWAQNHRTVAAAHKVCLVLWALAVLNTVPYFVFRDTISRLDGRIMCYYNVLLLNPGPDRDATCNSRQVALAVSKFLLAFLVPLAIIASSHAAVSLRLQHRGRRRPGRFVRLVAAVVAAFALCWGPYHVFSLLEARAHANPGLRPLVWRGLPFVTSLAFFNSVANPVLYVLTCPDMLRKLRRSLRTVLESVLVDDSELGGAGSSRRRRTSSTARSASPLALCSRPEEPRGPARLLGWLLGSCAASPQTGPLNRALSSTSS
Briefly: Ligand binding assay ([3H]PGD2 SPA, HEK cell membranes). Particulars: [3H]PGD2 binding to membranes of HEK cells expressing rhCRTh2/Gα16, SPA beads, 2 hours at room temperature. As for the experimental part: [^3H]PGD2 was purchased from Perkin Elmer Life Sciences with a specific activity of 100-210 Ci/mmol. All other chemicals were of analytical grade.
HEK cells expressing rhCRTh2/Gα16 were routinely maintained in DMEM containing 10% Fetal Bovine Serum (HyClone), 1 mg/ml geneticin, 2 mM L-glutamine and 1% non-essential amino acids. For the preparation of membranes, the adherent transfected HEKcells were grown to confluence in two layer tissue culture factories (Fisher, catalogue number TKT-170-070E). Maximal levels of receptor expression were induced by addition of […] sodium butyrate for the last 18 hours of culture. The adherent cells were washed once with phosphate buffered saline (PBS, 50 ml per cell factory) and detached by the addition of 50 ml per cell factory of ice-cold membrane homogenisation buffer [20 mM HEPES (pH 7.4), 0.1 mM dithiothreitol, 1 mM EDTA, 0.1 mM phenyl methyl sulphonyl fluoride and 100 μg/ml bacitracin]. […] The final pellet was re-suspended in 4 ml of membrane homogenisation buffer per cell factory used and the protein content determined. […]
All assays were performed in Corning clear bottomed, white 96-well NBS plates (Fisher). […] (The optimum coating concentrations were determined for each batch of membranes) The beads were pelleted by centrifugation (800×g for 7 minutes at 4° C.), washed once with assay buffer (50 mM HEPES pH 7.4 containing 5 mM magnesium chloride) and finally re-suspended in assay buffer at a bead concentration of 10 mg/ml.
Each assay contained 20 μl of 6.25 nM [^3]PGD2, 20 μl membrane saturated SPA beads both in assay buffer and 10 μl of compound solution or 13,14-dihydro-15-keto prostaglandin D2 (DK-PGD2, for determination of non-specific binding Cayman chemical company). […] The assay plate was incubated at room temperature for 2 hours and counted on a Wallac Microbeta liquid scintillation counter (1 minute per well).

Broadly, the IC50 is the concentration needed to halve the response being measured. Read a low IC50 as greater potency. What is called pIC50 is the IC50 on a negative log10 scale, so that one unit is a factor of ten.

Consider `Cc1ccc2c(c1)c([S+]([O-])c1ccc(Cl)cc1)c(C)n2CC(=O)O` (stereo not drawn) [Example 7, 3-[(4-chlorophenyl)sulfinyl]-2,5-dimethyl-1H-indole-1-acetic acid], for which the IC50 is 251 nM.
For the molecule “5-chloro-3-[(4-chlorophenyl)sulfonyl]-6-cyano-2-methyl-1H-indole-1-acetic acid [Example 6]”, the pIC50 was found to be 7.
Take `Cc1c(S(=O)(=O)c2ccc(Cl)cc2)c2cc(Cl)ccc2n1CC(=O)O` [Example 2, 5-chloro-3-[(4-chlorophenyl)sulfonyl]-2-methyl-1H-indole-1-acetic acid]: the IC50 is 7.94 nM.
